Measured values as given in publication PMC3818998 (Microbial Biotechnology, 2011).
Like-named read-outs stand apart in the source and are kept apart here.

T1: GalR (Bifidobacterium breve UCC2003, UniProt F9Y1U7 1-351)
T1 sequence: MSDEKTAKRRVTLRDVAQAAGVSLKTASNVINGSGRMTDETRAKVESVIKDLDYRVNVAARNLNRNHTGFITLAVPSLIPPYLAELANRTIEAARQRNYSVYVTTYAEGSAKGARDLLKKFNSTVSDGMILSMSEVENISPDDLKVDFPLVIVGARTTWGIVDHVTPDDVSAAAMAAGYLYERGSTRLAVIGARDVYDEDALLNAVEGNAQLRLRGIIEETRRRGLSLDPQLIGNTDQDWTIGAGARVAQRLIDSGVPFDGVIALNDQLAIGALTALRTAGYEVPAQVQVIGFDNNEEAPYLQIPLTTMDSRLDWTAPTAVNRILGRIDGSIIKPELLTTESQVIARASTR

B1: galCIR1 (dsDNA)
DNA 1: TTAGGTATTGGTACACGGGTGTACCAAAGAAAACA
DNA 2: TGTTTTCTTTGGTACACCCGTGTACCAATACCTAA
B2: galCIR2 (dsDNA)
DNA 1: TGACAAATTGGTACACAGGTGTATCATCTTAGGTA
DNA 2: TACCTAAGATGATACACCTGTGTACCAATTTGTCA

Legend:
GalG = GalG (Bifidobacterium breve, UniProt F9Y1U6); experiment: HPTLC of hydrolysis products; type: biochemical
GalR = biological target: T1, GalR; experiment: EMSA

Row | Molecule | binding result (GalR) | other results
1 | OC[C@H]1O[C@@H](O[C@@H]2[C@H](O)[C@@H](O)C(O)O[C@@H]2CO)[C@H](O)[C@@H](O)[C@H]1O (stereo partly shown) [galactobiose] |  | HPTLC of hydrolysis products (GalG): The hydrolysis products of galactobiose and lactose following incubation with GalG
2 | OC[C@H]1O[C@@H](O[C@@H]2[C@H](O)[C@@H](O)[C@H](O[C@@H]3[C@H](O)[C@@H](O)C(O)O[C@@H]3CO)O[C@@H]2CO)[C@H](O)[C@@H](O)[C@H]1O (stereo partly shown) [galactotriose] |  | HPTLC of hydrolysis products (GalG; galactotriose generated in situ from potato galactan by GalA or GalAT): Upon addition of GalG to the reaction mix the galactotriose is further hydrolysed
3 | B1 | binds | 
4 | B2 | binds | 
